Experimental data: US10173999B2, “Cyclic amine derivative and pharmaceutical use thereof” (Toray Industries, Inc., priority 2015, dated 2019)
Entries after “also recorded” stand apart in the source; their conditions may differ. Counter-ions that a name gives are not always drawn.

Experiments:
[1] = Pharmacokinetics (PK) test in cynomolgus monkeys; assay type: in vivo, cynomolgus monkey; conditions: male, plasma, cynomolgus monkey
Method: Cynomolgus monkeys (4 to 6 years old, male) were raised under the conditions of voluntary intake of solid food (Oriental Yeast Co., Ltd) and tap water and fasted from the evening of the day before initiation of administration and subjected to an experiment. Note that blood was sampled at 4 hours after administration (on and after 16:00), and thereafter feeding was restarted.
Dosing solution for intravenous administration was injected through the saphenous vein by use of a syringe needle (attached to a syringe barrel). The oral administration into the stomach was compulsively carried out by inserting a catheter into the nasal cavity.
The blood sampled was centrifuged at 4° C. and 1800×g for 15 minutes to obtain the plasma. The plasma thus obtained was stored at about −80° C. until use in preparation of analysis samples. The plasma obtained from a cynomolgus monkey to which a test compound was administrated, is referred to as a plasma sample; whereas the plasma obtained from a cynomolgus monkey to which a test compound was not administered, is referred to as the blank plasma.
(§1) The resulting solution was vortexed and cooled at 4° C. for 10 minutes. A sample for a calibration curve was prepared by adding a standard solution for a calibration curve to the blank plasma and subjecting the resulting mixture to the same treatment. After cooling, each of the samples was spun at 4° C. and 2000 rpm for 10 minutes by a centrifuge (Hitachi Koki Co., Ltd.). The resulting supernatant was used as a sample for LC/MS/MS analysis.
as §1, with “diluted 10 fold with 70 vol % acetonitrile containing 0.1 vol % formic acid and subjected” for “used”, “analysis. The LC/MS/MS analysis conditions were as follows:” for “analysis.”
The test-compound concentrations in the plasma at each sampling time point in the case of intravenous administration or oral administration were calculated and PK analysis was carried out for individual monkeys. PK parameters were calculated by using WinNonlin (Pharsight), in accordance with an analysis independent of a model (intravenous administration: Bolus IV Administration, oral administration: Extravascular Administration; Weight=1/y in both administrations). Furthermore, bioavailability (BA) was calculated based on the following Expression (3) by dividing AUC0-∞iv (time 0 to ∞) at the time of the intravenous administration and AUC0-∞po (time 0 to ∞) at the time of the oral administration by respective dose values to obtained as normalized values. Bioavailability (BA)=(AUC0-∞,po/dose)/(AUC0-∞,iv/dose) (3)

[2] = system: Canine aortic smooth muscle cells; experiment: Inducibility of cytoplasmic vacuolation in canine aortic smooth muscle cells; assay type: cell-based; parameters: key: Present: The term “present” in the tables means that cytoplasmic vacuolation was observed; Absent: the term “absent” means that cytoplasmic vacuolation was not observed; conditions: Concentration: 1.0 mmol/L, Treatment time: 24 hours
Method: (§2) As a test compound, the compound of Example 3, 9, 11, 12 or compounds of Comparative Examples 2 to 6 were used. Canine aortic smooth muscle cells (Canine Aortic Smooth Muscle Cells, supply source: Toyobo Co., Ltd.) or human aortic smooth muscle cells of (T/G HA-VSMG, supply source: ATCC) were treated with a test compound (1.0 or 1.2 mmol/L in concentration) for 24 hours or 2 weeks. The cells were stained with HE, immunohistochemically for LAMP-2 or toluidine blue, and thereafter the presence or absence of cytoplasmic vacuolation was determined by using an optical microscope.

[3] = system: human aortic smooth muscle cells (T/G HA-VSMG); experiment: Inducibility of cytoplasmic vacuolation in human aortic smooth muscle cells; assay type: cell-based; conditions: Concentration: 1.0 mmol/L, Treatment time: 24 hours, sulfate monohydrate
Method: as §2

Cr1: CD (SD) rats = experiment: Evaluation of safety in rat, two-week oral administration test; assay type: in vivo; conditions: for findings in examination items: in vivo, po
Method: As a test compound, the compound of Example 11 or Comparative Example 2 was used. The compound of Example 11 or Comparative Example 2 was administered orally to Cr1: CD (SD) rats (7 weeks old, female and male; from Charles River Laboratories, Inc.), for 2 weeks. Clinical observation, body weight measurement, food intake measurement, ophthalmologic examination (the compound of Example 11, alone), hematological examination, blood chemistry examination, urinalysis, bone marrow examination, pathological anatomical examination, organ weight measurement, histopathological examination and immunotoxicity test were carried out. In addition, toxicokinetics (TK) measurement was carried out on Day 1 and Day 14 after administration. It was confirmed that each test compound was exposed. The administration dose of a test compound was specified as 0, 250, 500, 1000 mg/kg/day and administration volume was specified as 10 mL/kg. As an administration solvent, phosphate-buffered saline was used for the compound of Example 11 and distilled water was used for the compound of Comparative Example 2.

[4] = system: mouse partial sciatic nerve ligation model (neuropathic pain); experiment: Mouse partial sciatic nerve ligation model (Seltzer model), von Frey test; assay type: in vivo; conditions: oral administration, von Frey test at 1, 2, 3 h
Method: The mouse partial sciatic nerve ligation model was prepared in accordance with the method of Seltzer et al. (Malmberg et al., Pain, vol. 76, p. 215-222, 1998).
Slc: ICR mice (5 weeks old, male; from Japan SLC, Inc.) or Cr1: CD1 (ICR) mice (5 weeks old, male; from CHARLES RIVER LABORATORIES JAPAN, INC.) were anesthetized with sodium pentobarbital (70 mg/kg, intraperitoneal administration). The sciatic nerve at the femoral region of the right hind paw of each mouse was exposed and triply ligated tightly with silk suture of 8-0 (from NATSUME SEISAKUSHO CO., LTD.) under a stereomicroscope so that only half thickness of the nerve was trapped in the ligature. A group of mice thus treated was designated as a partial sciatic nerve ligation group. A group of mice whose sciatic nerve was just exposed and not ligated was designated as a sham surgery group.
Evaluation of neuropathic pain (hereinafter referred to as von Frey test) was performed as follows. Mice were conditioned for at least one hour in an acrylic cage for measurement (from NATSUME SEISAKUSHO CO. LTD. or SHINANO SEISAKUSHO) placed on a wire net. Thereafter, using a filament (from North Coast Medical or neuroscience) which exerted a pressure of 0.16 g, the mice were subjected to mechanical tactile stimulus by applying the filament to the plantar surface of the right hind paw 3 times, each for 3 seconds, with an interval of 3 seconds.
Seven days after the sciatic nerve ligation surgery, the compound of Example 1, 2, 3, 4, 5, 7, 8, 9, 10, 11, 12 or 13 (10 mg/kg for each of the compounds of Example 1, 2, 3, 4, 5, 8, 10 and 13, 0.01 to 1 mg/kg for the compound of Example 7, 0.01 to 10 mg/kg for the compound of Example 9; 0.001 to 0.1 mg/kg for the compound of Example 11; and 0.01 to 1 mg/kg for the compound of Example 12) or pregabalin as a positive control (10 mg/kg; Bosche Scientific) was dissolved in distilled water and orally administered to mice of the partial sciatic nerve ligation group. The groups of the mice in the partial sciatic nerve ligation mouse to which the compound of Example 1, 2, 3, 4, 5, 7, 8, 9, 10, 11, 12 or 13 was administered were designated as a “partial sciatic nerve ligation+the compound of Example 1” group; a “partial sciatic nerve ligation+the compound of Example 2” group; a “partial sciatic nerve ligation+the compound of Example 3” group; a “partial sciatic nerve ligation+the compound of Example 4” group; a “partial sciatic nerve ligation+the compound of Example 5” group; a “partial sciatic nerve ligation+the compound of Example 7” group; a “partial sciatic nerve ligation+the compound of Example 8” group; a “partial sciatic nerve ligation+the compound of Example 9” group; a “partial sciatic nerve ligation+the compound of Example 10” group; a “partial sciatic nerve ligation+the compound of Example 11” group; a “partial sciatic nerve ligation+the compound of Example 12” group; and a “partial sciatic nerve ligation+the compound of Example 13” group, respectively. The partial sciatic nerve ligation mouse group to which pregabalin was administered was designated as a “partial sciatic nerve ligation+pregabalin” group. A group wherein distilled water was orally administered to the mice of the partial sciatic nerve ligation group was designated as a “partial sciatic nerve ligation+distilled water” group. A group wherein distilled water was orally administered to the mice of the sham surgery group was designated as a “sham surgery+distilled water” group.
The von Frey test was carried out before oral administration of a test compound (pre-value), one hour, two hours, and three hours after the oral administration of a test compound.
Slc: ICR mice (5 weeks old, male; Japan SLC, Inc.) were anesthetized with sodium pentobarbital (70 mg/kg, intraperitoneal administration).

[5] = system: mouse partial sciatic nerve ligation model (neuropathic pain); experiment: as above; assay type: in vivo; conditions: Comparative Example 7: oral, 7 days after ligation, 1-3 h after dosing; 0.01-1 mg/kg (Comp Ex 1), 10 mg/kg (Comp Ex 3-6, pregabalin); vs ligation+distilled water; t-test corrected by Dunnett

SMILES	bioavailability ([1]; 1 mg/kg oral vs 1 mg/kg intravenous, read-out: BA (bioavailability))	clearance ([1]; intravenous administration 1 mg/kg, single, read-out: CLtot (total body clearance) (converted))	AUC(0-inf) ([1]; oral administration 1 mg/kg, single)	Cmax ([1]; oral administration 1 mg/kg, single, read-out: Cmax (maximum plasma concentration))	half-life ([1]; oral administration 1 mg/kg, single, read-out: t1/2 (elimination half-life in the plasma) (converted))	Inducibility of cytoplasmic vacuolation [2]	Inducibility of cytoplasmic vacuolation [3]	findings in examination items (Cr1: CD (SD) rats; 250 mg/kg/day)	findings in examination items (Cr1: CD (SD) rats; 500 mg/kg/day)	no observed adverse effect level (Cr1: CD (SD) rats; oral, 2 weeks)	persistence of analgesic action [4]	time of strongest analgesic action after oral administration [4]	analgesic action in von Frey test (total score) [5]
CN(C)C1CCN(C(=O)CCc2nccn2C)CC1 [Comparative Example 2, 1-(4-(dimethylamino)piperidin-1-yl)-3-(1-methyl-1H-imidazol-2-yl)propan-1-one sulfate monohydrate]	42.6%	8.35 mL/min/kg	849 ng·h/mL	146 ng/mL	394 min	Present	has the inducibility of cytoplasmic vacuolation; also recorded: Present	abnormality was not observed	vacuolation was observed in e.g., the media of blood vessels of submandibular gland	250 mg/kg/day			
CCn1ccnc1CCC(=O)N1CCC(N(C)C)CC1 [Comparative Example 3, 1-(4-(dimethylamino)piperidin-1-yl)-3-(1-ethyl-1H-imidazol-2-yl)propan-1-one hydrochloride]						Present					tended to decrease 2 hours and 3 hours later	one	statistically significant analgesic action
CCCn1ccnc1CCC(=O)N1CCC(N(C)C)CC1 [Comparative Example 4, 1-(4-(dimethylamino)piperidin-1-yl)-3-(1-propyl-1H-imidazol-2-yl)propan-1-one hydrochloride]						Present					tended to decrease 2 hours and 3 hours later	one	statistically significant analgesic action
CCCCn1ccnc1CCC(=O)N1CCC(N(C)C)CC1 [Comparative Example 5, 1-(4-(dimethylamino)piperidin-1-yl)-3-(1-butyl-1H-imidazol-2-yl)propan-1-one hydrochloride]						Present					tended to decrease 2 hours and 3 hours later	one	statistically significant analgesic action
